Assay [1] has as its system IL1R. Briefly: RT-PCR, IL1β-induced mRNA expression of LCN2, IL6 and NOS2 in ATDC5 cells. The format is cell-based, murine. Particulars: IL1β (0,5 ng/ml), 24h. On the procedure:
(§1) ATDC-5 cells were seeded in 12-well plates. Cells were seeded in a monolayer. After adhesion and incubation overnight in serum-free conditions (starvation), ATDC5 cells were stimulated for 24 h with LPS [100 ng/ml] or IL-1β [0,5 ng/ml] in the presence or absence of the compounds of the invention [10-100 µM].
(§2) RNA was extracted using E.Z.N.A solation reagent (Omega) according to manufacturer's protocol. Relative quantitation was performed using the ΔΔC Comparative Method and the MxPro software (Stratagene, CA, USA) as the ratio of each gene to the expression of the housekeeping gene. Data are shown as mean ± S.E.M (error bars) of at least three independent experiments and represented as fold-change vs. controls.

In assay [2] the test system is ATDC5 cells. Kind of assay: Nitrite assay (Griess reaction), NO production. The format is cell-based, murine. Particulars: LPS (100 ng/ml) or IL1B (0,5 ng/ml), 24h. On the procedure: ATDC-5 cells were seeded in 12-well plates. Cells were seeded in a monolayer. After adhesion and incubation overnight in serum-free conditions (starvation), ATDC5 cells were stimulated for 24 h with LPS [100 ng/ml] or IL-1β [0,5 ng/ml] in the presence or absence of the compounds of the invention [10-100 µM]. As described above, 1×10^5 ATDC5 cells were seeded and treated for 24 h. Nitrite accumulation was determined in the culture medium using the Griess reaction. As previously described, after diazonium salt was dissolved, absorbance was measured at 550 nm in a microplate reader.
Background: The Griess reaction detects nitrite, a stable product of nitric oxide.

Assay [3] relates to TLR4. Briefly: Western blot, NOS2 protein expression in LPS-stimulated ATDC5 cells. The format is cell-based, murine. Particulars: LPS (100 ng/ml), 24h. How it is done: as §1
(§3) Whole-cell protein extraction was performed using lysis buffer (RIPA Buffer). Immunoblots were incubated with the appropriated antibodies [INOS (rabbit polyclonal antibody) diluted 1:1000 (Thermo Fisher Scientific, MA, USA), IG (anti-rabbit antibody) diluted 1:5000 (Jackson ImmunoResearch Laboratories Inc., USA), b-actin (mouse polyclonal antibody) (Thermo Fisher Scientific, MA, USA) diluted 1:6500 and IG (anti-mouse antibody) diluted 1:10000] (Jackson ImmunoResearch Laboratories Inc., USA).
(§4) Then, all immunoblots were visualized using an Immobilon Western kit (Millipore, MA, USA). Blots densitometries were generated using a ChemiDoc MP Imaging System and analysed using Image J software (National Institutes of Health, Bethesda, MD, USA).
A general note: A western blot detects proteins with antibodies after separation by electrophoresis.

The subject of assay [4] is TLR4. Kind of assay: RT-PCR, LPS-induced mRNA expression of LCN2, IL6 and NOS2 in ATDC5 cells. Particulars: LPS (100 ng/ml), 24h. It is filed as cell-based, murine. How it is done: as §1, §2
For assay [5], the system named is RBP4. Kind of assay: RBP4 mRNA expression in chondrocytes. It is filed as cell-based. To be noted: basal or inflammatory conditions (LPS or IL1β), 50 and 100 µM of PJ. On the procedure: as §2
Assay [6] relates to primary human osteoarthritis chondrocytes and osteoblasts. Briefly: RT-PCR, inflammatory and catabolic marker genes in TLR4- and IL1R-activated primary cells. The format is cell-based. To be noted: 50 µM, 24h, LPS (100 ng/ml) or IL1β (0,5 ng/ml). On the procedure:
as §2
According to the results obtained in ATDC5 cells, we selected the concentration 50 µM and co-treated the primary cells with inflammatory stimuli for 24h at the same concentrations [LPS (100 ng/ml), and IL1β (0,5 ng/ml)].

The test system of assay [7] is IL1R. Kind of assay: Western blot, NOS2 protein expression in IL1β-stimulated ATDC5 cells. It is filed as cell-based, murine. Particulars: IL1β (0,5 ng/ml), 24h. How it is done: as §1, §3, §4

Entries after “also recorded” stand apart in the source; their conditions may differ.

The text below walks through data of EP4309652A1, “COMPOSITION FOR USE IN THE PREVENTION AND/OR TREATMENT OF DISEASES MEDIATED BY TLR4, IL1R, COX1/2 AND/OR RBP4” (Servizo Galego de Saúde (SERGAS), priority 2022, dated 2024).

Take `CC(=O)OC(/C=C\C1OC(=O)C=CC1OC(C)=O)CC(OC(C)=O)C(C)OC(C)=O` (stereo not drawn) [Pectinolide E]: in assay [1], the “concentration of inhibitory activity on IL1β-induced mRNA expression” value is on record as 50 µM.
The same measure, in the same setting: with `CC(=O)OC(/C=C\C1CC=CC(=O)O1)CC(OC(C)=O)C(C)OC(C)=O` (stereo not drawn) [Hyptolide] the figure was 100 µM.
In the case of `COc1ccc2c(c1)c(CC(=O)O)c(C)n2C(=O)c1ccc(Cl)cc1` [Indomethacin, reference compound], the “NO production induced by LPS and IL1β” value in assay [2] is on record as “did not suppress; also recorded: did not significantly inhibit”.
On to `CC(=O)OC(/C=C\C1OC(=O)C=CC1O)CC(OC(C)=O)C(C)OC(C)=O` (stereo not drawn) [Pectinolide J], for which, in assay [3], the “NOS2 protein expression (250 kDa dimer), LPS-induced” value is listed as “highest reduction of NOS2 expression”. Moreover, in assay [1], the “IL1β-induced expression of LCN2, IL6 and NOS2” value was “maximum inhibitory activity”; the “concentration of inhibitory activity on IL1β-induced mRNA expression” value turned out to be 10 µM. The “LPS-induced mRNA expression of LCN2, IL6 and NOS2” value in assay [4] is recorded as “highest anti-inflammatory activity”. Besides, the “RBP4 mRNA expression” value in assay [5] was “downregulates”. Moreover, in assay [6], the “inflammatory and catabolic marker genes (LCN2, NOS2, IL6, MMP3) induced by the inflammatory stimuli” value is “maximum anti-inflammatory activity”. Further, in assay [2], the “NO production induced by LPS and IL1β” value is “maximum inhibitory activity”; the “concentration of maximum inhibitory activity on induced NO production” value lay within 10 to 25 µM. The “NOS2 protein expression (250 kDa dimer), IL1β-induced” value in assay [7] is recorded as “highest reduction of NOS2 expression”.
